We go through 23 molecules from ChEMBL document CHEMBL4118156, “Design, synthesis and evaluation of vilazodone-tacrine hybrids as multitarget-directed ligands against depression with cognitive impairment” (Bioorg Med Chem, 2018).

A short description of data set [1]: in vitro. The settings on record: PAMPA. For orientation: PAMPA measures passive passage across an artificial lipid membrane.
Description: Effective permeability of the compound in PBS/ethanol buffer after 12 hrs by PAMPA
The target in data set [2] is T1, 5-hydroxytryptamine receptor 1A (Homo sapiens, UniProt P08908).
T1 sequence (P08908 whole entry): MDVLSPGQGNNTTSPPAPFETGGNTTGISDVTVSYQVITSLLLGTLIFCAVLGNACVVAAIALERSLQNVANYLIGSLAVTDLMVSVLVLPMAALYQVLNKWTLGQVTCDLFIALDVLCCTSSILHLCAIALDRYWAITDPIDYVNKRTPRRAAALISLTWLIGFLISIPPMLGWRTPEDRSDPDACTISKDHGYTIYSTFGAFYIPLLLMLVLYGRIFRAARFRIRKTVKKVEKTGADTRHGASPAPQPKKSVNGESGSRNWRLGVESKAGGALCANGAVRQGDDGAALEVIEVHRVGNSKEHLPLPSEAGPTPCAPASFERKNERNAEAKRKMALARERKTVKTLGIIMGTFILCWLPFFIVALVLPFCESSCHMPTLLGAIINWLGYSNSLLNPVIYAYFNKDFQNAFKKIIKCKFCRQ
Description: Agonist activity at human 5-HT1A receptor expressed in HEK293 cells after 60 mins by Eu-cAMP solution based ultra LANCE assay

Data set [3] has as its target T2, Butyrylcholinesterase (Rattus norvegicus, UniProt Q9JKC1).
Description: (§1) Inhibition of rat serum BChE using butyrylthiocholine iodide as substrate after 20 mins by Ellman's method
A further data set concerns the target T3, Acetylcholinesterase (Rattus norvegicus, UniProt P37136).
T3 sequence (P37136 whole entry): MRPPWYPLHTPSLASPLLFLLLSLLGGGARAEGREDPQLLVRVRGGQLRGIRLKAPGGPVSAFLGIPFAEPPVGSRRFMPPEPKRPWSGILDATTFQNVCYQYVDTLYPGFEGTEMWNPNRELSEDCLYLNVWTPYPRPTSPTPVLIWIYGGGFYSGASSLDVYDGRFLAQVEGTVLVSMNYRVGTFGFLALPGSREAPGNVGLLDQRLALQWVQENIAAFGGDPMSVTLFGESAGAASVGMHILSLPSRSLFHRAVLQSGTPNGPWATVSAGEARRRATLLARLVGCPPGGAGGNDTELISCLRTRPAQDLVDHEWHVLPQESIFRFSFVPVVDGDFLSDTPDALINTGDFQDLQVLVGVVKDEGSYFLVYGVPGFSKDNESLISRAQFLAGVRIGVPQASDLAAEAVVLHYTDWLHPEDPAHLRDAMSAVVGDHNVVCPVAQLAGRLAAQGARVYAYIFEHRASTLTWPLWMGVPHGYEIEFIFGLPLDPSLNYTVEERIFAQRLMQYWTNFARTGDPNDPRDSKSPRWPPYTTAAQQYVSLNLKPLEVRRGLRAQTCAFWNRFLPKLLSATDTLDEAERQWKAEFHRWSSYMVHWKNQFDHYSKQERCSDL
In words: Inhibition of rat cortex AChE using acetylthiocholine iodide as substrate after 20 mins by Ellman's method. The settings on record: for pIC50: read-out: IC50. For orientation: DTNB colorimetry detects thiols as they appear.

Data set [4] addresses T2, Butyrylcholinesterase. The source holds these as a separate data set.
Description: as §1
A short description of data set [5]: in vitro. The note with it: not told.
Description: Effective permeability of the compound in PBS/ethanol buffer
The target in data set [6] is Sodium-dependent serotonin transporter (Homo sapiens, UniProt P31645). Type of data set: cell-based, HEK293.
Sequence of Sodium-dependent serotonin transporter (P31645 whole entry): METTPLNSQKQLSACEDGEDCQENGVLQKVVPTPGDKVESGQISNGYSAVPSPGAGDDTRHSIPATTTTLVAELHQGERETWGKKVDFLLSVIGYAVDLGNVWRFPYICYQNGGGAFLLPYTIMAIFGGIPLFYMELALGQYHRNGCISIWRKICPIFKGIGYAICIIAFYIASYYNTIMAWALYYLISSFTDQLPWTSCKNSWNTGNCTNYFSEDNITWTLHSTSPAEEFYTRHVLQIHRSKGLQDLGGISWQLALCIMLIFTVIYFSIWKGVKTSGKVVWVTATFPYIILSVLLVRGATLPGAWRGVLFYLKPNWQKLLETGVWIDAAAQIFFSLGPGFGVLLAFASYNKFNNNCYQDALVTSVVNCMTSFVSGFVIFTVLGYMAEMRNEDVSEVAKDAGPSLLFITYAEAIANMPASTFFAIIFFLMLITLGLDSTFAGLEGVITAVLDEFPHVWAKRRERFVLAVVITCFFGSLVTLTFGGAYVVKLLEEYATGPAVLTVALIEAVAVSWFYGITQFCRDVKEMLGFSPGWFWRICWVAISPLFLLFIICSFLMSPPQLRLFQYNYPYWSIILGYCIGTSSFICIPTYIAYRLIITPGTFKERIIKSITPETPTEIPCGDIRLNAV
Description: Inhibition of SERT (unknown origin) expressed in HEK293 cells assessed as reduction in 5-HT uptake incubated for 30 mins

Molecules are shown by their SMILES. pEC50, pIC50: −log10 of the molar value. Where only a bound is given, the exact number is not on record here.

T2 sequence (Q9JKC1 whole entry): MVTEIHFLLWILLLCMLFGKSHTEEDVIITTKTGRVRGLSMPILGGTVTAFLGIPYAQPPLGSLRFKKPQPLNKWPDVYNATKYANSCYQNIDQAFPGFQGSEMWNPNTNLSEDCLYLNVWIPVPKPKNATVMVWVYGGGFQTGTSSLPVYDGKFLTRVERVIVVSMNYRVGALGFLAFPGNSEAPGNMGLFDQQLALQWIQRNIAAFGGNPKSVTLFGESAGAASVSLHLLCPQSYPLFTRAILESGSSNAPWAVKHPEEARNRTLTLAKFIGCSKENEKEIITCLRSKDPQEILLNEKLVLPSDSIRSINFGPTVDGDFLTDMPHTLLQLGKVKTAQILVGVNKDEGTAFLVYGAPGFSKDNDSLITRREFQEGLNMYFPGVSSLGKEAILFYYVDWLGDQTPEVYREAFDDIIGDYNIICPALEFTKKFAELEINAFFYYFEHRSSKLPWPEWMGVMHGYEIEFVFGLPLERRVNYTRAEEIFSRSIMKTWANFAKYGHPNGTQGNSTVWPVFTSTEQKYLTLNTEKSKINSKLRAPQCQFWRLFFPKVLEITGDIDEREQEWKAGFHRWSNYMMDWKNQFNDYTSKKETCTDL

By Papp is commonly meant a coefficient for how fast a substance crosses the barrier. Low values mean slow passage, high ones fast passage. One may read the pEC50 as the EC50 on a negative log10 scale, so that one unit is a factor of ten. Lower therefore signals a large EC50. On to `Nc1c2c(nc3cccc(N4CCN(CCCCc5c[nH]c6ccc(Cl)cc56)CC4)c13)CCCC2`, for which the apparent permeability (Papp) at 12 h in the data set “in vitro [1]” was determined as 2.74 ×10⁻⁶ cm/s. Moreover, in data set [2], the negative-log EC50 (pEC50) is 9.12. Further, the IC50 entry against Butyrylcholinesterase [3] and on Acetylcholinesterase was “Nd(Insoluble)” throughout.
With `Nc1c2c(nc3cccc(N4CCN(CCCCc5c[nH]c6ccc(F)cc56)CC4)c13)CCCC2`, in the data set “in vitro [1]”, the Papp at 12 h stood at 3.76 ×10⁻⁶ cm/s. The pEC50 in data set [2] is 9.14. Moreover, the IC50 result against Butyrylcholinesterase [3] and on Acetylcholinesterase was “Nd(Insoluble)” throughout.
Usually pIC50 stands for the IC50 on a negative log10 scale, so that one unit is a factor of ten. `N#Cc1ccc2[nH]cc(CCN3CCN(c4cccc5nc6c(c(N)c45)CCCC6)CC3)c2c1` showed a Papp at 12 h in “in vitro [1]” of 4.48 ×10⁻⁶ cm/s. For the same molecule, the pEC50 in data set [2] was less than 5.00. In addition, the pIC50 on Acetylcholinesterase was 5.68; against Butyrylcholinesterase [4], 5.95.
For `N#Cc1ccc2[nH]cc(CCCCN3CCN(c4ccc5nc6c(c(N)c5c4)CCCC6)CC3)c2c1` the same measures were 3.55 ×10⁻⁶ cm/s, 7.83, 4.99 and 6.19.
For `N#Cc1ccc2[nH]cc(CCCCN3CCN(c4ccc5c(N)c6c(nc5c4)CCCC6)CC3)c2c1` the same measures were 2.99 ×10⁻⁶ cm/s, 7.54, 5.29 and 6.60.
In turn, `COc1ccc(CCN2CCC(Nc3nc4ccccc4n3Cc3ccc(F)cc3)CC2)cc1` [ASTEMIZOLE] showed an apparent permeability (Papp) in “in vitro [5]” of 11 ×10⁻⁶ cm/s.
Consider `N#Cc1ccc2[nH]cc(CCCN3CCN(c4cccc5nc6c(c(N)c45)CCCC6)CC3)c2c1`, for which the apparent permeability coefficient (Papp) at 12 h in the data set “in vitro [1]” was determined as 5.46 ×10⁻⁶ cm/s. In addition, the pEC50 in data set [2] is 7.28. The pIC50 at Acetylcholinesterase is 5.74; against Butyrylcholinesterase [4], 6.38.
For `Nc1c2c(nc3cccc(N4CCN(CCCCc5c[nH]c6ccccc56)CC4)c13)CCCC2` the same measures were 3.52 ×10⁻⁶ cm/s, 8.92, 5.84 and 6.41.
`Nc1c2c(nc3cccc(N4CCN(CCCCc5c[nH]c6ccc(Br)cc56)CC4)c13)CCCC2` showed an apparent permeability (Papp) at 12 h in the data set “in vitro [1]” of 3.05 ×10⁻⁶ cm/s. In data set [2], this molecule showed a pEC50 of 9.46. For the same molecule, the IC50 result against Butyrylcholinesterase [3] and against Acetylcholinesterase was “Nd(Insoluble)” in each case.
The molecule `N#Cc1ccc2[nH]cc(C(=O)CCCN3CCN(c4ccc5nc6c(c(N)c5c4)CCCC6)CC3)c2c1` had a Papp at 12 h in the data set “in vitro [1]” of 1.04 ×10⁻⁶ cm/s. For the same molecule, the pEC50 in data set [2] was 5.81. Besides, the negative-log IC50 (pIC50) on Acetylcholinesterase is 5.54; at Butyrylcholinesterase [4], 6.60.
For `N#Cc1ccc2[nH]cc(CCCCN3CCN(c4cccc5c(N)c6c(nc45)CCCC6)CC3)c2c1` the same measures were 4.43 ×10⁻⁶ cm/s, 8.81, 5.63 and 6.51.
For `N#Cc1ccc2[nH]cc(C(=O)CCCN3CCN(c4cccc5c(N)c6c(nc45)CCCC6)CC3)c2c1` the same measures were 1.61 ×10⁻⁶ cm/s, 7.46, 5.48 and 5.73.
The molecule `N#Cc1ccc2[nH]cc(CCCCN3CCN(c4cccc5nc6c(c(N)c45)CCCC6)CC3)c2c1` returned a Papp at 12 h in “in vitro [1]” of 5.11 ×10⁻⁶ cm/s. For the same molecule, the pIC50 in data set [6] was 7.69; on Acetylcholinesterase it was 5.76; on Butyrylcholinesterase [4], 6.47. In addition, the pEC50 in data set [2] is 9.44.
In the case of `N#Cc1ccc2[nH]cc(C(=O)CCCN3CCN(c4ccc5c(N)c6c(nc5c4)CCCC6)CC3)c2c1`, in the data set “in vitro [1]”, the Papp at 12 h amounted to 1.68 ×10⁻⁶ cm/s. Moreover, the negative-log EC50 (pEC50) in data set [2] was 6.25. For the same molecule, the values for the negative-log IC50 (pIC50) on Acetylcholinesterase and on Butyrylcholinesterase [4] were 5.70 and 6.43, respectively.
Regarding `COc1ccc2[nH]cc(CCCCN3CCN(c4cccc5nc6c(c(N)c45)CCCC6)CC3)c2c1`, the apparent permeability coefficient (Papp) at 12 h in the data set “in vitro [1]” stood at 4.53 ×10⁻⁶ cm/s. Further, the pIC50 in data set [6] is 6.64; on Acetylcholinesterase, 5.79; against Butyrylcholinesterase [4], 6.40. Further, the negative logarithm of the EC50 (pEC50) in data set [2] was more than 9.85.
`Cc1ccc2[nH]cc(CCCCN3CCN(c4cccc5nc6c(c(N)c45)CCCC6)CC3)c2c1`: in the data set “in vitro [1]”, the Papp at 12 h stood at 3.64 ×10⁻⁶ cm/s. In data set [2], this molecule had a negative-log EC50 (pEC50) of 9.22. Further, the pIC50 at Acetylcholinesterase was 5.95; against Butyrylcholinesterase [4] it was 6.44.
In the case of `CC(=O)Nc1c2c(nc3cccc(N4CCN(CCCCc5c[nH]c6ccc(C#N)cc56)CC4)c13)CCCC2`, in the data set “in vitro [1]”, the apparent permeability (Papp) at 12 h was 1.92 ×10⁻⁶ cm/s. For the same molecule, in data set [2], the pEC50 is 7.03. Further, the negative-log IC50 (pIC50) was 5.25 at Acetylcholinesterase and 5.53 at Butyrylcholinesterase [4].
For `N#Cc1ccc2[nH]cc(CCCCN3CCN(c4ccc5oc(C(N)=O)cc5c4)CC3)c2c1` [VILAZODONE], at Acetylcholinesterase, the pIC50 is 4.67.
As for `N#Cc1ccc2[nH]cc(CCCCN3CCN(c4cccc5nc6c(c(N)c45)CCC6)CC3)c2c1`, the apparent permeability (Papp) at 12 h in the data set “in vitro [1]” came out at 4.38 ×10⁻⁶ cm/s. Besides, the pIC50 in data set [6] was 7.66; at Acetylcholinesterase, 5.63; against Butyrylcholinesterase [4], 7.00. The pEC50 in data set [2] is 9.24.
In the case of `COC(=O)c1ccc2[nH]cc(CCCCN3CCN(c4cccc5nc6c(c(N)c45)CCCC6)CC3)c2c1`, the Papp at 12 h in the data set “in vitro [1]” came to 6.22 ×10⁻⁶ cm/s. Moreover, the negative-log IC50 (pIC50) in data set [6] was 6.50; at Acetylcholinesterase, 5.65; at Butyrylcholinesterase [4] it was 6.39. In addition, in data set [2], the pEC50 was more than 9.85.
In turn, `N#Cc1ccc2[nH]cc(C(=O)CCCN3CCN(c4cccc5nc6c(c(N)c45)CCCC6)CC3)c2c1` had an apparent permeability (Papp) at 12 h in “in vitro [1]” of 1.33 ×10⁻⁶ cm/s. In addition, the pEC50 in data set [2] is 7.20. Also, the pIC50 at Acetylcholinesterase was 5.87; against Butyrylcholinesterase [4], 6.41.
For `N#Cc1ccc2[nH]cc(CCCCN3CCN(c4cccc5nc6c(c(N)c45)CCCCC6)CC3)c2c1` the same measures were 3.97 ×10⁻⁶ cm/s, 6.84, 4.74 and 6.64.
With `CC1COc2c(N3CCN(C)CC3)c(F)cc3c2N1CC(C(=O)O)C3=O` (stereo not drawn), in “in vitro [1]”, the Papp at 12 h is 0.4 ×10⁻⁶ cm/s. The molecule further had a Papp in the data set “in vitro [5]” of 0.8 ×10⁻⁶ cm/s.
